Measured values as given in PubChem BioAssay (NCI).
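Results reflect a 48-hour exposure of cells in 96-well plates to compound at five concentrations. TGI: total growth inhibition.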

Key:
Experiment in all cases: DTP human tumour cell line panel, 48 h
[1] = test system: SF-295 CNS
[2] = test system: HT29 colon
[3] = test system: NCI-H23 lung
[4] = test system: DU-145 prostate
[5] = test system: SR leukemia
[6] = test system: K-562 leukemia
[7] = test system: M14 melanoma
[8] = test system: SF-268 CNS
[9] = test system: BT-549 breast
[10] = test system: KM12 colon
[11] = test system: SN12C renal
[12] = test system: MALME-3M melanoma
[13] = test system: MOLT-4 leukemia
[14] = test system: MDA-MB-435
[15] = test system: HL-60(TB) leukemia
[16] = test system: OVCAR-5 ovarian
[17] = test system: SW-620 colon
[18] = test system: U251 CNS
[19] = test system: MDA-MB-231 breast
[20] = test system: SK-MEL-2 melanoma
[21] = test system: 786-0 renal
[22] = test system: NCI-H460 lung
[23] = test system: SF-539 CNS
[24] = test system: RXF 393 renal
[25] = test system: MCF7 breast
[26] = test system: UO-31 renal
[27] = test system: UACC-257 melanoma
[28] = test system: A498 renal
[29] = test system: SK-MEL-28 melanoma
[30] = test system: RPMI-8226 leukemia
[31] = test system: TK-10 renal
[32] = test system: HS 578T breast
[33] = test system: OVCAR-4 ovarian
[34] = test system: OVCAR-8 ovarian
[35] = test system: NCI-H522 lung
[36] = test system: IGROV1 ovarian
[37] = test system: OVCAR-3 ovarian
[38] = test system: PC-3 prostate
[39] = test system: HCT-15 colon
[40] = test system: CCRF-CEM leukemia
[41] = test system: SK-OV-3 ovarian
[42] = test system: HOP-92 NSCLC
[43] = test system: HOP-62 NSCLC
[44] = test system: ACHN renal
[45] = test system: NCI-H226 lung
[46] = test system: EKVX NSCLC
[47] = test system: A549 NSCLC
[48] = test system: SNB-19 CNS
[49] = test system: SNB-75 CNS
[50] = test system: T-47D breast
[51] = test system: MDA-N
[52] = test system: LOX IMVI melanoma
[53] = test system: CAKI-1 renal
[54] = test system: NCI/ADR-RES ovarian
[55] = test system: UACC-62 melanoma
[56] = test system: COLO 205 colon
[57] = test system: HCC-2998 colon
[58] = test system: HCT-116 colon
[59] = test system: SK-MEL-5 melanoma

Question: With COC(=O)/C=C1/OC(c2ccc(C)cc2)=C(Cl)C1=O as the compound, how does the TGI [1] read?
Answer: 41.7 µM

Question: And the TGI [2]?
Answer: 32.6 µM

Question: And the TGI [3]?
Answer: 36.9 µM

Question: What about the TGI [4] of the same compound?
Answer: 32.7 µM

Question: What about the TGI [5] of the same compound?
Answer: 9.06 µM

Question: And the TGI [6]?
Answer: 19 µM

Question: What about the TGI [7] of the same compound?
Answer: 35.5 µM

Question: And the TGI [8]?
Answer: 41.6 µM

Question: And the TGI [9]?
Answer: 42.2 µM

Question: And the TGI [10]?
Answer: 30.7 µM

Question: And the TGI [11]?
Answer: 38 µM

Question: And the TGI [12]?
Answer: 33.5 µM

Question: And the TGI [13]?
Answer: 13.8 µM

Question: And the TGI [14]?
Answer: 34.9 µM

Question: And the TGI [15]?
Answer: 10.2 µM

Question: What about the TGI [16] of the same compound?
Answer: 35 µM

Question: What about the TGI [17] of the same compound?
Answer: 28.9 µM

Question: And the TGI [18]?
Answer: 24.6 µM

Question: And the TGI [19]?
Answer: 33.6 µM

Question: And the TGI [20]?
Answer: 34.3 µM

Question: What about the TGI [21] of the same compound?
Answer: 27 µM

Question: What about the TGI [22] of the same compound?
Answer: 51 µM

Question: And the TGI [23]?
Answer: 35.5 µM

Question: And the TGI [24]?
Answer: 26.6 µM

Question: And the TGI [25]?
Answer: 34.9 µM

Question: What about the TGI [26] of the same compound?
Answer: 31.6 µM

Question: And the TGI [27]?
Answer: 43.1 µM

Question: What about the TGI [28] of the same compound?
Answer: 33.6 µM

Question: And the TGI [29]?
Answer: 30.9 µM

Question: What about the TGI [30] of the same compound?
Answer: 14.4 µM

Question: What about the TGI [31] of the same compound?
Answer: 34.9 µM

Question: What about the TGI [32] of the same compound?
Answer: 68.9 µM

Question: And the TGI [33]?
Answer: 27.5 µM

Question: What about the TGI [34] of the same compound?
Answer: 41.3 µM

Question: What about the TGI [35] of the same compound?
Answer: 23.2 µM

Question: And the TGI [36]?
Answer: 34.4 µM

Question: What about the TGI [37] of the same compound?
Answer: 27.1 µM

Question: What about the TGI [38] of the same compound?
Answer: 27.7 µM

Question: What about the TGI [39] of the same compound?
Answer: 26.4 µM

Question: What about the TGI [40] of the same compound?
Answer: 11.7 µM

Question: What about the TGI [41] of the same compound?
Answer: 59.3 µM

Question: What about the TGI [42] of the same compound?
Answer: 34.1 µM

Question: And the TGI [43]?
Answer: 38.8 µM

Question: What about the TGI [44] of the same compound?
Answer: 30.4 µM

Question: What about the TGI [45] of the same compound?
Answer: 47.1 µM

Question: What about the TGI [46] of the same compound?
Answer: 42.3 µM

Question: And the TGI [47]?
Answer: 40.4 µM

Question: And the TGI [48]?
Answer: 52.2 µM

Question: And the TGI [49]?
Answer: 35.5 µM

Question: What about the TGI [50] of the same compound?
Answer: 52.1 µM

Question: What about the TGI [51] of the same compound?
Answer: 33.1 µM

Question: What about the TGI [52] of the same compound?
Answer: 23.7 µM

Question: What about the TGI [53] of the same compound?
Answer: 29.7 µM

Question: And the TGI [54]?
Answer: 56.1 µM

Question: And the TGI [55]?
Answer: 36.9 µM

Question: What about the TGI [56] of the same compound?
Answer: 23.7 µM

Question: And the TGI [57]?
Answer: 34.4 µM

Question: And the TGI [58]?
Answer: 24.7 µM

Question: And the TGI [59]?
Answer: 27.9 µM

Question: O=S(=O)(CCCCl)SCCCCl was tested. Which TGI [1] did it give?
Answer: > 93.4 µM

Question: And the TGI [2]?
Answer: 62.5 µM

Question: And the TGI [3]?
Answer: > 100 µM

Question: And the TGI [4]?
Answer: > 100 µM

Question: What about the TGI [5] of the same compound?
Answer: 60.1 µM

Question: What about the TGI [6] of the same compound?
Answer: 47.5 µM

Question: And the TGI [7]?
Answer: 47.3 µM

Question: And the TGI [8]?
Answer: 65 µM

Question: And the TGI [9]?
Answer: 28.1 µM

Question: What about the TGI [10] of the same compound?
Answer: > 100 µM

Question: And the TGI [11]?
Answer: 64.1 µM

Question: And the TGI [12]?
Answer: > 83.8 µM

Question: And the TGI [13]?
Answer: 38.5 µM

Question: And the TGI [14]?
Answer: > 67.2 µM

Question: And the TGI [15]?
Answer: 24.5 µM

Question: And the TGI [16]?
Answer: > 94.3 µM

Question: And the TGI [17]?
Answer: 42.3 µM

Question: And the TGI [18]?
Answer: > 69.3 µM

Question: And the TGI [19]?
Answer: 69.4 µM

Question: What about the TGI [20] of the same compound?
Answer: > 100 µM

Question: And the TGI [21]?
Answer: 33.2 µM

Question: And the TGI [22]?
Answer: > 100 µM

Question: And the TGI [23]?
Answer: 53.4 µM

Question: And the TGI [24]?
Answer: 57.8 µM

Question: What about the TGI [25] of the same compound?
Answer: 52.5 µM

Question: What about the TGI [26] of the same compound?
Answer: > 100 µM

Question: And the TGI [27]?
Answer: > 100 µM

Question: What about the TGI [28] of the same compound?
Answer: > 100 µM

Question: And the TGI [29]?
Answer: > 100 µM

Question: And the TGI [30]?
Answer: 64.1 µM

Question: What about the TGI [31] of the same compound?
Answer: > 100 µM

Question: What about the TGI [32] of the same compound?
Answer: 94.7 µM

Question: What about the TGI [33] of the same compound?
Answer: 24.2 µM

Question: And the TGI [34]?
Answer: 18 µM

Question: And the TGI [35]?
Answer: 32.6 µM

Question: What about the TGI [36] of the same compound?
Answer: > 67.5 µM

Question: And the TGI [37]?
Answer: > 66.6 µM

Question: What about the TGI [38] of the same compound?
Answer: > 100 µM

Question: What about the TGI [39] of the same compound?
Answer: 54.7 µM

Question: What about the TGI [40] of the same compound?
Answer: 47.1 µM

Question: What about the TGI [41] of the same compound?
Answer: > 100 µM

Question: And the TGI [42]?
Answer: 78.3 µM

Question: What about the TGI [43] of the same compound?
Answer: > 100 µM

Question: And the TGI [44]?
Answer: > 100 µM

Question: And the TGI [45]?
Answer: > 100 µM

Question: And the TGI [46]?
Answer: > 100 µM

Question: What about the TGI [47] of the same compound?
Answer: > 100 µM

Question: What about the TGI [48] of the same compound?
Answer: > 100 µM

Question: What about the TGI [49] of the same compound?
Answer: > 94 µM

Question: And the TGI [50]?
Answer: 98.2 µM

Question: And the TGI [51]?
Answer: > 76.2 µM

Question: And the TGI [52]?
Answer: 40.6 µM

Question: And the TGI [53]?
Answer: > 100 µM

Question: And the TGI [54]?
Answer: > 85.3 µM

Question: And the TGI [55]?
Answer: > 100 µM

Question: And the TGI [56]?
Answer: > 69.2 µM

Question: What about the TGI [57] of the same compound?
Answer: > 100 µM

Question: And the TGI [58]?
Answer: 51.1 µM

Question: And the TGI [59]?
Answer: > 94.1 µM
